Experimental data taken from paper PMC9863764, “Roles of Human Liver Cytochrome P450 Enzymes in Tenatoprazole Metabolism” (Pharmaceutics, 2022).
Where “and” joins values, the source holds several entries; their conditions need not be identical. Equal values may be shown once. One block for each molecule: values may come before it.

What was measured:
Assay type in all cases: in vitro ADME
human CYP3A4 [1] = molecular target: T1, human CYP3A4 (Homo sapiens, UniProt P08684); assay: Steady-state kinetics of tenatoprazole oxidation by recombinant CYP3A4; conditions: 30 min incubation, LC-QTOF-MS
T1 construct: made in house; host or cells: Escherichia coli (membrane fractions)
Method: Pooled liver microsomes from human samples were obtained from ThermoFisher Scientific (Waltham, MA, USA). […] Membrane fractions expressing both P450 and CPR of E. coli were prepared as described previously and were used for the catalytic activity assays. […] The reaction was started by adding NGS and the incubation was continued for the indicated time at 37 °C. Incubation was then stopped by adding ice-chilled ethyl acetate (0.50 mL) and omeprazole (IS) was added to a final concentration of 20 μM. […] Phenomenex, Torrance, CA, USA). The products formed were analyzed by HPLC at […]. The HPLC profile of the authentic chemicals (i.e., tenatoprazole, tenatoprazole sulfide, and their metabolites) were used to identify the major metabolites of tenatoprazole and tenatoprazole sulfide produced by the recombinant P450s. […] The kinetic parameters (kcat and Km) were determined by using a Michaelis-Menten nonlinear regression analysis with GraphPad Prism (GraphPad Software, San Diego, CA, USA). To further characterize the nature of the metabolites, the reaction mixtures were additionally analyzed by a 6530 Quadrupole Time-of-Flight (QTOF) mass spectrometer (MS) (Agilent, Santa Clara, CA, USA) coupled with a 1290 Infinity ultra-performance liquid chromatography (UPLC) system (Agilent). […] The reaction was initiated by adding NGS at 37 °C. […] Then, the upper layer was transferred to a glass tube and dried under nitrogen stream. The residues were reconstituted in 0.30 mL acetonitrile, then 1 μL samples were injected into an LC-MS system. The analytical column was a Hypersil Gold C18 column (100 × 2.1 mm, 1.9 μm; ThermoFisher Scientific). […] A gradient program was used for HPLC separation, and the flow rate was 0.4 mL/min. […] The column and autosampler were kept at 35 °C and 4 °C, respectively, during analysis. Electrospray ionization was performed in the positive ion mode. The sheath gas flow rate was 8 L/min. The flow rate of drying gas was 12 L/min at 350 °C, and the nebulizer's temperature was set at 350 °C. The capillary voltage was 4500 V in the positive mode, and that of the fragmentor was 175 V. Data acquisition were done over a scan range from 50 m/z to 1000 m/z in the centroid mode. A reference compound (C18H18O6N3P3F24; [M+H]^+ = 922.0098) was used to correct all of the masses. Tandem mass spectrometry (MS/MS) data were acquired in profile mode via autoanalysis for structural characterization with 30 eV of the collision energy.

human CYP3A4 [2] = molecular target: T1, human CYP3A4; assay: Sulfoxidation of tenatoprazole sulfide by recombinant CYP3A4 (chiral chromatography)
Method: The sulfoxidation reaction of tenatoprazole sulfide by CYP3A4 was measured by chiral chromatography. […] The reaction was initiated by adding NGS at 37 °C. […] After the residues were solubilized in 180 μL mobile phase, 30 μL samples were injected onto a Chiralpak AD column (4.6 × 150 mm, 10 μm; Daicel Corporation, Osaka, Japan) with a hexane-ethanol mixture (30:70, v/v) as the mobile phase. The products formed were analyzed by HPLC at […]. […] The kinetic parameters (kcat and Km) were determined by using a Michaelis-Menten nonlinear regression analysis with GraphPad Prism (GraphPad Software, San Diego, CA, USA).

[3] = test system: human liver microsomes (HLMs); assay: Time course of oxidation of tenatoprazole and tenatoprazole sulfide by human liver microsomes (HPLC); conditions: human, 12 h, 500 μM, pH 7.4
Method: A racemate of tenatoprazole was used in this work because the chiral tenatoprazoles currently are not commercially available. The reactions using HLMs contained incubation at 37 °C in 0.25 mL mixtures containing P450 (0.5 mg protein/mL) in 100 mM potassium phosphate buffer (pH 7.4), an NADPH-generating system (NGS, final concentration of 10 mM glucose-6-phosphate, 0.50 mM NADP^+, 1.0 IU yeast glucose-6-phosphate dehydrogenase per mL), and 0.1 mM of tenatoprazole or tenatoprazole sulfide. Incubations generally were performed for 2 h in the presence or absence of the NGS. Tenatoprazole and its metabolites were extracted twice using cold ethyl acetate as an organic solvent. Then centrifugation (1000× g, 20 min) was done to separate the organic layer from the aqueous layer. Omeprazole was added to this solution as an internal standard (IS) at a final 20 μM concentration. The organic layer was concentrated under nitrogen gas stream. The dried residues were then dissolved in the mobile phase (180 μL) and 30 μL was injected onto the column.
High-performance liquid chromatography (HPLC) was performed on the basis of a previously developed method for tenatoprazole and its metabolites, as described elsewhere. The analytical column was a Gemini C18 column (4.6 × 150 mm, 5 μm; Phenomenex), and the HPLC mobile phase consisted of acetonitrile and 5 mM potassium phosphate buffer (pH 7.3) (25:75, v/v). The substrate and its metabolites were detected at A302. The HPLC profile of the authentic compounds (i.e., tenatoprazole and its metabolites) were measured to compare to identify the major metabolites of tenatoprazole and tenatoprazole sulfide produced by HLMs.
The time course of the oxidation of tenatoprazole and tenatoprazole sulfide by HLMs (0.5 mg protein/mL) was analyzed to the estimated yield of metabolites and percentage of each metabolite using 0.60 mM substrate in 0.25 mL of 0.10 M potassium phosphate buffer (pH 7.4). After NGS was added to initiate the reaction, the samples were incubated for the designated time (i.e., 2, 5, 10, and 30 min, and 1, 2, 4, 8, 12, and 24 h) at 37 °C. Product formation was quantified using HPLC analysis, as mentioned above.
Calibration standard curves of tenatoprazole were made using a blank control sample (a reaction mixture without substrate and IS) and 12 samples containing tenatoprazole and omeprazole (IS) covering the concentration ranges of 1–500 μM, as described previously. The peak area ratio of tenatoprazole to IS was linear with respect to the analyte concentration over the range of 1–500 μM. The metabolites were quantified by comparing the peak areas of each metabolite to the mean peak areas of the IS (20 μM omeprazole).

T1 sequence (P08684 whole entry): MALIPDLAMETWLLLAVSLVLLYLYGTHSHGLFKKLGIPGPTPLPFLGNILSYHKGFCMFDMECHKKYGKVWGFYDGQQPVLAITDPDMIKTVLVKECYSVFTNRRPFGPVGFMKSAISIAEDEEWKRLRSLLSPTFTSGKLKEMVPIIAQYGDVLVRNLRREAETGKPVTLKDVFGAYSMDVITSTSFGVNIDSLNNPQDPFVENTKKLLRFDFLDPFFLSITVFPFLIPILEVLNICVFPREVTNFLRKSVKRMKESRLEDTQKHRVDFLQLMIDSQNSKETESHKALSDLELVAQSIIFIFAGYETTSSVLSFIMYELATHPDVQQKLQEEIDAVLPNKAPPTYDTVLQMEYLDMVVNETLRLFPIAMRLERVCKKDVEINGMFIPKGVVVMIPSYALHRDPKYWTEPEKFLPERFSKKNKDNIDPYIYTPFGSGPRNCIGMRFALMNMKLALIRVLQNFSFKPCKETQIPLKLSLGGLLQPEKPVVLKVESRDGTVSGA

Structure (SMILES): COc1ccc2[nH]c(SCc3c(C)c(OC)c(CO)c[n+]3[O-])nc2n1 [1′-N-oxy-5′-OH tenatoprazole sulfide, 1′-N-oxy-5′-hydroxytenatoprazole sulfide]
amount of metabolite observed in CYP3A4-catalyzed reaction (human CYP3A4 [1]): only trace amounts

Structure (SMILES): COc1ccc2[nH]c([S@+]([O-])Cc3ncc(C)c(OC)c3C)nc2n1 [R-tenatoprazole]
fold higher catalytic efficiency of R-tenatoprazole formation than S-tenatoprazole formation (human CYP3A4 [2]; substrate tenatoprazole sulfide, CYP3A4): 1.7 fold
kcat of product formation (human CYP3A4 [2]; substrate tenatoprazole sulfide, recombinant CYP3A4, chiral chromatography, label = product formed): 0.0667 s⁻¹ and 0.0667 ± 0.005 s⁻¹

conversion yield to tenatoprazole sulfide [3]: 94.8%
tenatoprazole sulfide remained ([3]; microsomes): More than 99%
sulfoxidation activity to produce tenatoprazole (human CYP3A4 [2]; recombinant CYP3A4, substrate tenatoprazole sulfide): showed the sulfoxidation activity
Structure (SMILES): COc1ccc2[nH]c(SCc3ncc(C)c(OC)c3C)nc2n1 [tenatoprazole sulfide, Tenatoprazole sulfide]
